Data taken from PubChem BioAssay (NCI).
“And” between values parts separate entries of the source, which are not always exact repeats. Equal entries are not always repeated.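 Assay format: 96-well plates, 48-hour exposure. GI50 is the concentration that inhibits growth by half. TGI marks complete inhibition of growth.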

Assays:
Assay in all cases: inhibition of tumour cell growth, NCI panel, 48 h
A549 NSCLC = tested on: A549 NSCLC
SF-268 CNS = tested on: SF-268 CNS
HOP-92 NSCLC = tested on: HOP-92 NSCLC
RPMI-8226 leukemia = tested on: RPMI-8226 leukemia
UACC-62 melanoma = tested on: UACC-62 melanoma
SR leukemia = tested on: SR leukemia
MDA-MB-435 = tested on: MDA-MB-435
UACC-257 melanoma = tested on: UACC-257 melanoma
HCC-2998 colon = tested on: HCC-2998 colon
KM12 colon = tested on: KM12 colon

Compound	GI50 (A549 NSCLC)	TGI (A549 NSCLC)	GI50 (SF-268 CNS)	TGI (SF-268 CNS)	GI50 (HOP-92 NSCLC)	TGI (HOP-92 NSCLC)	GI50 (RPMI-8226 leukemia)	TGI (RPMI-8226 leukemia)	GI50 (UACC-62 melanoma)	TGI (UACC-62 melanoma)	GI50 (SR leukemia)	TGI (SR leukemia)	GI50 (MDA-MB-435)	TGI (MDA-MB-435)	GI50 (UACC-257 melanoma)	TGI (UACC-257 melanoma)	GI50 (HCC-2998 colon)	TGI (HCC-2998 colon)	GI50 (KM12 colon)	TGI (KM12 colon)
FC(F)(F)c1cccc(CNC2CCN(CCc3ccccc3)CC2)c1	40.3 µM	> 100 µM	40.3 µM	> 100 µM	11.2 µM	47.1 µM	22.6 µM	51.5 µM	13.9 µM	30.7 µM	15.1 µM	41.6 µM	15.9 µM	30.8 µM	17.2 µM	33.4 µM	17.7 µM	37.2 µM	22.5 µM	56.6 µM
COc1cc2c3c(n(CCCN)c(=O)c2cc1OC)-c1ccc(N)cc1C3=O	12.9 µM	44.3 µM	1.64 µM	31.6 µM	2.3 µM	15.3 µM	19.5 µM	49.8 µM	1.08 µM	10.7 µM	0.152 µM	1.45 µM	3.06 µM	17 µM	13.7 µM	50.3 µM	0.806 µM	6 µM	9.26 µM	> 74.2 µM
O=C1[C@H](Cc2ccc(O)cc2)N2C(=O)CCN(C(=O)NCc3ccccc3)[C@H]2CN1Cc1cccc2ccccc12	2.66 µM	> 50.6 µM	1.81 µM	15.5 µM	0.418 µM	2.4 µM	3.66 µM	23.1 µM	4.45 µM	25 µM	3.19 µM	> 54.1 µM	3.96 µM	21.4 µM	2.72 µM	23.9 µM	3.51 µM	23.2 µM	3.1 µM	15.3 µM
CNCc1cccc2c1OCCOCCOCCNS(=O)(=O)c1ccc(cc1)-c1cnc(N)c(n1)C(=O)N2	1.58 µM	4.82 µM	1.04 µM	3.31 µM	3.05 µM	14.7 µM	1.73 µM	4.26 µM	1.61 µM	2.99 µM	0.346 µM	13.3 µM	1.35 µM	2.74 µM	1.93 µM	4.68 µM	1.79 µM	4.69 µM	1.22 µM	2.98 µM
CN(C)c1ccc(/C=N/N=C(\C#N)[S][Sn]([Cl])([c]2ccccc2)[c]2ccccc2)cc1	2.84 µM	9.05 µM	1.51 µM	3.06 µM	1.42 µM	2.87 µM	1.43 µM	5.15 µM	1.41 µM	2.87 µM	1.57 µM	8.57 µM	1.5 µM	3.01 µM	1.52 µM	2.95 µM	1.28 µM	2.61 µM	1.8 µM	3.94 µM
O=c1c(Oc2ccc(F)cc2F)cc2cnc(NC3CCOCC3)nc2n1C1CC1	> 25 µM	> 25 µM	> 25 µM	> 25 µM	0.172 µM	10.6 µM	> 25 µM	> 25 µM	> 25 µM	> 25 µM	> 25 µM	> 25 µM	> 25 µM	> 25 µM	> 25 µM	> 25 µM	> 25 µM	> 25 µM	> 25 µM	> 25 µM
CCCCCCCCCCCCOC1C(C(COC2OC(C(O)CO)C3OC(C)(C)OC23)OC(=O)Nc2ccccc2)OC2OC(C)(C)OC21 (centres undefined)	6.08 µM	20.6 µM	4.47 µM	16.6 µM	7.29 µM	20.1 µM	3.93 µM	15.2 µM	10.5 µM	22.5 µM	< 0.0212 µM		7.72 µM	21.6 µM	9.94 µM	25.2 µM	5.39 µM	10.4 µM	2.99 µM	8.76 µM
COc1nc(N)nc2nc[nH]c12	> 800 µM and 713 µM	> 1000 µM	646 µM	500 µM and 800 µM and > 1000 µM	511 µM and 596 µM	480 µM and 800 µM and > 1000 µM	677 µM	500 µM and > 1000 µM	441 µM and 349 µM	429 µM and 800 µM and > 1000 µM	> 800 µM and 249 µM	500 µM and > 800 µM and > 849 µM	> 801 µM	> 1000 µM	> 1000 µM	500 µM and > 800 µM and > 1000 µM	> 800 µM and 574 µM	> 868 µM	> 800 µM and 842 µM	> 1000 µM
O=C1NC(c2ccccc2Cl)Nc2ccccc21 (centres undefined)		> 100 µM		> 100 µM		> 100 µM		62.8 µM		> 100 µM		> 100 µM		4.76 µM		> 100 µM		> 100 µM		> 100 µM
C/C(=C\c1csc(C)n1)[C@@H]1C[C@@H]2O[C@]2(C)CCC[C@H](C)[C@H](O)[C@@H](C)C(=O)C(C)(C)[C@@H](O)CC(=O)N1	9.28e-05 µM	0.000294 µM	0.000215 µM	0.000446 µM	< 1e-05 µM	< 1e-05 µM	< 1e-05 µM	< 1e-05 µM	0.000171 µM	0.000412 µM	0.00102 µM	0.00332 µM	6.55e-05 µM	0.000143 µM	0.000138 µM	0.000277 µM	0.000121 µM	0.000243 µM	0.000141 µM	0.000354 µM
O=C1NC(=NCc2cccs2)O/C1=C\c1ccc2ncccc2c1	4.46 µM	12.5 µM	5.34 µM	18.1 µM	1.51 µM	9.66 µM	4.26 µM	17.3 µM	4.42 µM	11.5 µM	2.58 µM	10.7 µM	4.51 µM	14.4 µM	3.74 µM	12.4 µM	7.76 µM	> 25 µM	7.45 µM	24.5 µM
OCc1ccc(N2CCc3ccc(F)cc3C2)cc1Cl	0.516 µM	19.8 µM	13.1 µM	27 µM	0.146 µM	0.889 µM	0.263 µM	10.7 µM	0.0405 µM	0.248 µM	2.9 µM	17.3 µM	8.69 µM	22 µM	0.0279 µM	0.101 µM	1.7 µM	14.4 µM	10.5 µM	26 µM
O=S(=O)(Nc1ccccc1)c1ccc(C2CC3(Cl)C(Cl)=C(Cl)C2(Cl)C3(Cl)Cl)cc1 (centres undefined)	3.11 µM	11 µM	3.8 µM	12.8 µM	1.84 µM	5.08 µM	2.53 µM	7.28 µM	1.66 µM	3.58 µM	2.08 µM	5.2 µM	2.34 µM	5.44 µM	2.64 µM	6.27 µM	1.81 µM	3.46 µM	2.15 µM	4.12 µM
C=CCN(CC=C)Cc1c[nH]c2ccccc12	31.5 µM	> 100 µM	11.5 µM	32.5 µM	> 100 µM	> 100 µM	17.8 µM	> 100 µM	18.1 µM	54.1 µM	30.3 µM	> 100 µM	10.9 µM	32.9 µM	8.63 µM	28 µM	27.8 µM	72.7 µM	32.2 µM	> 100 µM
N#C[Se]CCN1C(=O)c2ccccc2C1=O	2.55 µM	8.93 µM	1.83 µM	3.84 µM	1.37 µM	3.12 µM	3.35 µM	18.5 µM	1.52 µM	3.74 µM	3.21 µM	23.9 µM	1.73 µM	3.83 µM	2.51 µM	11 µM	3.87 µM	15.2 µM	3.14 µM	45.3 µM
Cc1ccc(-c2nc([P+](c3ccccc3)(c3ccccc3)c3ccccc3)c(N3CCOCC3)o2)cc1	0.5 µM	14 µM	0.389 µM	11 µM	0.3 µM	2.44 µM	0.251 µM	1.16 µM	0.35 µM	1.45 µM	0.418 µM	5.33 µM	0.351 µM	1.81 µM	0.341 µM	3.42 µM	0.517 µM	6.87 µM	0.368 µM	1.82 µM
O=C1NC(=O)C2C3C=CC(C12)C1C2C(=O)NC(=O)C2C31 (centres undefined)	172 µM	250 µM and > 1000 µM	> 896 µM	> 1000 µM	> 1000 µM	230 µM and > 1000 µM	> 76.6 µM and 577 µM	203 µM and > 1000 µM	636 µM	227 µM and > 1000 µM	68.9 µM and 108 µM	250 µM and > 871 µM	> 250 µM	> 1000 µM	> 1000 µM	250 µM and > 1000 µM	> 587 µM	250 µM and > 1000 µM	> 1000 µM	250 µM and > 1000 µM
CCCCCCCCCCN=C(N)c1ccc(N2CCN(c3ccc(C(N)=NCCCCCCCCCC)cc3)CC2)cc1	3.32 µM	> 50 µM	2.27 µM	11.1 µM	5.88 µM	28.9 µM	1.96 µM	> 50 µM	6.67 µM	38.1 µM	> 50 µM	> 50 µM	2.83 µM	12.6 µM	9.81 µM	26.5 µM	3.51 µM	> 50 µM	2.9 µM	17.8 µM
